# What was measured:
# [1] = system: HeLa cervical carcinoma cells; assay: Cellular cytotoxicity assay (Alamar Blue), HeLa; format: cell-based; conditions: Homo sapiens, 72 h, printed only as range over the group of listed compounds
# Method: The anti-proliferative activity of the histone deacetylase inhibitory compounds as described herein, was evaluated using the following cell lines: HeLa and HeLa-KB (cervical carcinoma), H460 (non small cell lung cancer), A549 (non-small cell lung cancer), MCF7 (breast carcinoma), MCF10A (normal, non tumorigenic breast epithelial), MDA-MB468 (breast carcinoma), MDA-MB435 (breast carcinoma), MDA-MB231 (breast carcinoma), SKBR-3 (breast carcinoma), SKOV-3 (ovarial carcinoma), A-2780 (ovarial carcinoma), RKO (colon carcinoma), HCT-15 (colon carcinoma), HCT-116 (colon carcinoma), PC3 (prostate carcinoma), BPH1 (benign prostate hyperplasia), AsPC1 (pancreatic carcinoma), Cal27 (tongue carcinoma), A-431 (vulva carcinoma), Hec1A (endometrial carcinoma), Saos-2 (osteosarcoma), U87MG (glioblastoma), WM266-4 (melanoma), K562 (chronic myeloid carcinoma), EOL1 (acute hypereosinophilic myeloid leukemia), CCRF-CEM and CCRF-CEM VCR1000 (acute lymphoblastic leukemia sensitive and resistant towards Vincristine). For quantification of cellular proliferation/living cells the Alamar Blue (Resazurin) cell viability assay was applied (O'Brien et al. Eur J Biochem 267, 5421-5426, 2000). […] After 4 hours incubation at 37° C. the fluorescence was measured at an extinction of 544 nm and an emission of 590 nm. […] Viabilities were expressed as % values. […]
# [2] = system: RKO arrested (p21waf1 expressed) colon carcinoma cells; assay: Cell-cycle dependent cytotoxicity, RKO exop21 system, arrested; format: cell-based; conditions: 72 h, p21waf1 induced, given only as range over the listed compounds
# Method: (§1) For determination of cell-cycle dependent cytotoxicity, the RKO exop21 cell system was applied (Schmidt et al. Oncogene 19: 2423-2429, 2000). Briefly, RKO cells with/without p21^waf1 expression (2×10^4 cells/well induced, 6×10^3 cells/well not induced) were treated with the examples for 72 h and metabolic activity quantified as described before. The expression of p21^waf1 was induced by treatment with Pronasterone A, causing a complete proliferation arrest of RKO cells in the G1 and G2 phases of the cell division cycle.
# [3] = system: RKO proliferating colon carcinoma cells; assay: Cell-cycle dependent cytotoxicity, RKO exop21 system, proliferating; format: cell-based; conditions: 72 h, given only as range over the listed compounds
# Method: as §1
# [4] = system: A549 cell line; assay: Combination experiment with Trail; format: cell-based; conditions: example at about its IC50 with Trail, 4 h pretreatment, 72 h total
# Method: A549 non-small cell lung cancer, MDA-MB468 breast cancer and […] colorectal cancer cell lines were pretreated with the examples for 4 h before adding the chemotherapeutic agents or Trail and further incubation for 72 h total. The IC50 values of these combinations were determined from concentration-effect curves and compared to IC50 values of cell treated with the anti-cancer agent only.
smiles,measurement,setting,value
"Cc1ccc(S(=O)(=O)n2ccc(C=CC(=O)NO)c2)cc1 [Compound 1, (E)-N-Hydroxy-3-[1-(toluene-4-sulfonyl)-1-H-pyrrol-3-yl]-acrylamide]",IC50,[1],800 to 21600 nM
"O=C(/C=C/c1ccn(S(=O)(=O)c2ccc(-c3ccccc3)cc2)c1)NO [Compound 3, (E)-3-[1-(Biphenyl-4-sulfonyl)-1H-pyrrol-3-yl]-N-hydroxy-acrylamide]",IC50,[2],450 to 15000 nM
same,IC50,[3],150 to 5100 nM
same,Effect of combination with Trail,[4],synergism is highly likely
"CN(CCc1cc2ccccc2[nH]1)Cc1ccc(S(=O)(=O)n2ccc(/C=C/C(=O)NO)c2)cc1 [Compound 9, (E)-N-Hydroxy-3-(1-[4-(([2-(1H-indol-2-yl)-ethyl]-methyl-amino)-methyl)-benzenesulfonyl]-1H-pyrrol-3-yl)-acrylamide]",IC50,[2],450 to 15000 nM
same,IC50,[3],150 to 5100 nM
same,Effect of combination with Trail,[4],synergism is highly likely
"CN(C)Cc1ccc(S(=O)(=O)n2ccc(/C=C/C(=O)NO)c2)cc1 [Compound 10, (E)-3-[1-(4-Dimethylaminomethyl-benzenesulfonyl)-1H-pyrrol-3-yl]-N-hydroxy-acrylamide]",IC50,[2],450 to 15000 nM
same,IC50,[3],150 to 5100 nM
same,Effect of combination with Trail,[4],synergism is highly likely
"NCc1ccc(S(=O)(=O)n2ccc(/C=C/C(=O)NO)c2)cc1 [Compound 17, (E)-3-[1-(4-Aminomethyl-benzenesulfonyl)-1H-pyrrol-3-yl]-N-hydroxy-acrylamide]",melting point,,227 to 228.6 °C
"O=C(/C=C/c1ccn(S(=O)(=O)c2ccc(-c3ccncc3)cc2)c1)NO [Compound 18, (E)-N-Hydroxy-3-[1-(4-pyridin-4-yl-benzenesulfonyl)-1H-pyrrol-3-yl]-acrylamide]",melting point,,219.3 to 221.4 °C
"O=C(/C=C/c1ccn(S(=O)(=O)c2ccc(-c3cn[nH]c3)cc2)c1)NO [Compound 19, (E)-N-Hydroxy-3-{1-[4-(1H-pyrazol-4-yl)-benzenesulfonyl]-1H-pyrrol-3-yl}-acrylamide]",melting point,,203.8 to 211.9 °C
"Nc1ccccc1NC(=O)/C=C/c1ccn(S(=O)(=O)c2ccc(-c3ccncc3)cc2)c1 [Compound 20, (E)-N-(2-Amino-phenyl)-3-[1-(4-pyridin-4-yl-benzenesulfonyl)-1H-pyrrol-3-yl]-acrylamide]",melting point,,244.2 to 246.5 °C
"Nc1ccccc1NC(=O)/C=C/c1ccn(S(=O)(=O)c2ccc(-c3cccnc3)cc2)c1 [Compound 21, (E)-N-(2-Amino-phenyl)-3-[1-(4-pyridin-3-yl-benzenesulfonyl)-1H-pyrrol-3-yl]-acrylamide]",melting point,,199.7 to 202.3 °C
"Nc1ccccc1NC(=O)/C=C/c1ccn(S(=O)(=O)c2ccc(-c3cn[nH]c3)cc2)c1 [Compound 22, (E)-N-(2-Amino-phenyl)-3-{1-[4-(1H-pyrazol-4-yl)-benzenesulfonyl]-1H-pyrrol-3-yl}-acrylamide]",melting point,,232.3 to 240.9 °C
"O=C(/C=C/c1ccn(S(=O)(=O)c2cccc(-c3ccccc3)c2)c1)NO [Compound 23, (E)-3-[1-(Biphenyl-3-sulfonyl)-1H-pyrrol-3-yl]-N-hydroxy-acrylamide]",melting point,,114 to 159.4 °C
"O=C(/C=C/c1ccn(S(=O)(=O)c2ccc(-c3ccccn3)s2)c1)NO [Compound 24, (E)-N-Hydroxy-3-[1-(5-pyridin-2-yl-thiophene-2-sulfonyl)-1H-pyrrol-3-yl]-acrylamide]",IC50,[2],450 to 15000 nM
same,IC50,[3],150 to 5100 nM
same,Effect of combination with Trail,[4],synergism is highly likely
"O=C(/C=C/c1ccn(S(=O)(=O)c2ccc(-n3cccn3)cc2)c1)NO [Compound 25, (E)-N-Hydroxy-3-[1-(4-pyrazol-1-yl-benzenesulfonyl)-1H-pyrrol-3-yl]-acrylamide]",melting point,,160.7 to 166.6 °C
"Nc1ccccc1NC(=O)/C=C/c1ccn(S(=O)(=O)c2ccc(-c3ccccn3)s2)c1 [Compound 26, (E)-N-(2-Amino-phenyl)-3-[1-(5-pyridin-2-yl-thiophene-2-sulfonyl)-1H-pyrrol-3-yl]-acrylamide]",melting point,,171.3 to 174.7 °C
"O=C(/C=C/c1ccn(S(=O)(=O)c2ccc(CN3CCOCC3)cc2)c1)NO [Compound 27, (E)-N-Hydroxy-3-[1-(4-morpholin-4-ylmethyl-benzenesulfonyl)-1H-pyrrol-3-yl]-acrylamide]",melting point,,168 to 170 °C

# — patent publication US8232297B2, “Sulphonylpyrroles as inhibitors of HDACs novel sulphonylpyrroles” (4SC AG, priority 2005, dated 2012)
